Laboratory results published in US20260191825A1, “CONTRACEPTIVE COMPOUNDS AND DOSING FOR THE SAME” (YourChoice Therapeutics, Inc., priority 2024, published 2026).
“And” between values parts separate entries of the source, which are not always exact repeats. Equal values may be shown once. “Also recorded” adds a separate entry of the source.

Experiments:
[1] = target: CYP2D6 (Homo sapiens, UniProt P10635); experiment: In vitro CYP inhibition (direct and time-dependent), CYP2D6; assay type: in vitro ADME
CYP2D6, sequence (P10635 whole entry): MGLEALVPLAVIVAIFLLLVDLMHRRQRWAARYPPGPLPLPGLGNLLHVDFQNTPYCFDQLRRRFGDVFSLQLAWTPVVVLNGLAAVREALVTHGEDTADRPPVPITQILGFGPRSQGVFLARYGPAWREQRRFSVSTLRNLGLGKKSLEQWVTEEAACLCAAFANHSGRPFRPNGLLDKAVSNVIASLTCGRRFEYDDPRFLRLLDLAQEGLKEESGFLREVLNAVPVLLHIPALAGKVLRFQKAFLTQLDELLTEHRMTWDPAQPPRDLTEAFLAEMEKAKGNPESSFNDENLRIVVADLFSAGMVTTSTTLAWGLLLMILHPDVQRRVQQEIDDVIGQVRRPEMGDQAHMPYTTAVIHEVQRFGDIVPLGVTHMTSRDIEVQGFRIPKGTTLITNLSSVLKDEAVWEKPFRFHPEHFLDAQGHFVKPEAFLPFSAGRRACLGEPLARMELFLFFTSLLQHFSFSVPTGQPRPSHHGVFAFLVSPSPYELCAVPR
Description: (§1) However, the likelihood of drug interactions is low since healthy participants who meet eligibility criteria will be enrolled in this Phase 1b/2a clinical trial. An allowance for select concomitant medications may be considered for select participants at the discretion of the investigator and/or sponsor if drug profiles are not anticipated to interact with Compound A. Such medications may include, but will not be limited to paracetamol or ibuprofen as assessed by both the PI and the Sponsor. […] Additional precautions to avoid grapefruit, pomegranates, star fruit, or Seville oranges for 7 days prior to admission, and juices and products containing these fruits for the duration of the study will be taken.

[2] = Dog 28-day repeat-dose GLP toxicity study; assay type: in vivo; conditions: male, Beagle, in vivo; for NOAEL at 28 days: dog
[3] = system: male Beagle dogs; experiment: Dog 28-day repeat-dose GLP toxicity study; assay type: in vivo
[4] = Dog GLP 28-day repeat-dose study, PK at the NOAEL; conditions: male, Beagle, in vivo, 5 mg/kg, 5 mg/kg (NOAEL); for AUC(0-t): AUC0-24, dog
[5] = Phase 1b MAD study (Part 1), 28-day dosing, PK; assay type: in vivo, human; conditions: for Cmax / AUC0-24 / AUC(0-t) / AUC(0-inf) / half-life: mean; for Tmax: median;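 for all read-outs here: PK profiles sampled across 24 h on Day 1 and Day 28 while participants stayed overnight in the clinical research unit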
Description: • Part 1: Participants will have overnight stays in the clinical research unit in order to monitor their wellbeing and obtain 24-hour PK profiles on Day 1 and Day 28.

[6] = In vitro stability in microsomes (mouse); assay type: in vitro ADME; conditions: mice, read-out: Half-life (T1/2) in microsomes
Description: (§2) Respective half-lives (T1/2) were 9.5 hours (human), 23.1 hours (monkeys), >23.1 hours (mice), >23.1 hours (rats), 19.6 hours (rabbits), and >23.1 hours (dogs).

[7] = system: central nervous system (CNS); experiment: Rat FOB / CNS safety pharmacology study; assay type: in vivo; conditions: male Sprague Dawley rats, single oral doses of 3, 10 or 30 mg/kg
[8] = target: CYP2B6 (Homo sapiens, UniProt P20813); experiment: In vitro CYP inhibition (direct and time-dependent), CYP2B6; assay type: in vitro ADME
CYP2B6, sequence (P20813 whole entry): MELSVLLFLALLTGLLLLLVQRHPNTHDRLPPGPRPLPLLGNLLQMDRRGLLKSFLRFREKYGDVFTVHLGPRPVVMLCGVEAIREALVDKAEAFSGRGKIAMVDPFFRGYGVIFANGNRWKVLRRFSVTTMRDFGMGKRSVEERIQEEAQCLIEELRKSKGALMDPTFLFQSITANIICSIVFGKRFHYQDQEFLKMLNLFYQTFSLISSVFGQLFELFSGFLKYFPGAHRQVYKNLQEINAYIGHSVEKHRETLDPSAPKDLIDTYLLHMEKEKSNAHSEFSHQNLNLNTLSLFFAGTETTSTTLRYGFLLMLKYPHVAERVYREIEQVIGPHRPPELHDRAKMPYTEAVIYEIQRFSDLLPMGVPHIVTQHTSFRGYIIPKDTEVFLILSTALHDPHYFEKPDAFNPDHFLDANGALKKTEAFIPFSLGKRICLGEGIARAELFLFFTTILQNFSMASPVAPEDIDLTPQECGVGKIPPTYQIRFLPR
Description: as §1

[9] = system: bacterial reverse mutation (Ames); experiment: In vitro bacterial reverse mutation (Ames) test; assay type: cell-based; conditions: in vitro bacterial assay, highest doses tested
[10] = In vitro stability in liver microsomes (human); assay type: in vitro ADME
Description: as §2

[11] = NHP exploratory 14-day non-GLP repeat-dose study; assay type: in vivo, cynomolgus monkey; conditions: male, cynomolgus monkey, in vivo; for NOAEL at 14 days: NHP
Description: (§3) An exploratory 14-day non-GLP study was conducted in male NHPs (cynomolgus monkeys) for assessment of efficacy and toxicity parameters prior to the conduct of the 28-day GLP toxicity studies in rats and dogs.

[12] = system: male NHPs (cynomolgus monkeys); experiment: NHP exploratory 14-day non-GLP repeat-dose study; assay type: in vivo, cynomolgus monkey
Description: as §3

[13] = system: healthy vasectomized men; experiment: Phase 1a single ascending oral dose study, safety and tolerability; assay type: in vivo, human
Description: The doses tested under fasting conditions were 10, 30, 90 and 180 mg. […] Cohort 1 first received 10 mg, and after a 5-week washout period received 30 mg. Cohort 2 received 90 mg followed by 180 mg after a 5-week washout period.

[14] = male, human, in vivo, oral, 30 mg, […] mg once daily, Day 28
[15] = male, human, in vivo, oral, 15 mg once daily, Day 28

## Cc1ccc(C2=CC(C)(C)Oc3ccc(-c4ccc(-c5ccc(C(=O)O)cc5)[nH]4)cc32)cc1 [Compound A]
[1]; CYP2D6
  IC50: > 100 µM
[1]; CYP2D6, 0.3 to 100 μM
  Time-dependent inhibition (TDI): NADPH-independent time-dependent inhibition
[2]; dog 28-day GLP, NOAEL 5 mg/kg/day, read-out: HED of NOAEL
  Human equivalent dose of NOAEL at 28 days: 2.8 mg/kg/day
[2]; 28-day repeat dose GLP, 2.5-25 mg/kg/day
  NOAEL at 28 days: 5 mg/kg/day
[2]; 28-day repeat-dose
  NOAEL at 28 days: 5 mg/kg
[3]; dog
  HED (based on BSA) of MABEL: 1.4 mg/kg
  HED for 60 kg BW of MABEL: 84 mg
  HED for 80 kg BW of MABEL: 112 mg
  HED of not tolerated dose, fixed dose based on 80 kg body weight: ≥ 444.8 mg
  Not tolerated repeat daily dose (death and morbidity): ≥ 10 mg/kg/day
[3]; dog, 28-day dosing
  Doses with intended testicular toxicity confirmed by histopathology: ≥ 2.5 mg/kg/day
[3]; dog, 28-day repeat dose GLP
  MABEL: 2.5 mg/kg/day
[3]; dog, 62-day recovery period
  Reversibility of spermatogenesis: reversible
[3]; dog, after 28-day dosing
  Recovery of spermatogenesis: 1 spermatogenic cycle
[3]; dog, after dosing
  Cross-section of canine testicle after dosing (FIG. 1B): no developing and mature sperm
[3]; dog, after recovery period
  Cross-section of canine testicle after recovery period of no dosing (FIG. 1C): return of developing sperm
[3]; dogs, 10 or 25 mg/kg/day
  Cause of death or moribundity: renal toxicity
[3]; male, Beagle, dog, in vivo, 28 days
  NOAEL increase over the minimum efficacious dose in rats: 22 fold
[3]; of dog repeat-dose NOAEL
  HED for 60 kg BW: 168 mg
  HED for 80 kg BW: 224 mg
[4]; Day 1, mean
  AUC(0-t): 43800 ng·h/mL
[4]; Day 28, mean
  AUC(0-t): 80800 ng·h/mL
  Cmax: 4800 ng/mL
[4]; Day 1, n = 9, mean
  Cmax: 3410 ng/mL
[4]; T1/2, dog, Day 1, median
  half-life: 13.9 h
[4]; Tmax, Day 28, median
  Tmax: 2 h
[5]; 15 mg once daily, Day 1
  Cmax: 247.8 ng/mL
[5]; 15 mg once daily, Day 28
  AUC0-24: 6,414 h*ng/mL
[5]; 90 mg once daily, Day 1
  AUC0-24: 14,091/ h*ng/mL
  Cmax: 794.3 ng⁻¹ mL⁻¹
[5]; 90 mg once daily, Day 28
  AUC0-24: 22,710/ h*ng/mL
  Cmax: 1,165/ ng/mL
[5]; […] mg once daily, Day 1
  AUC0-24: 10,060/ h*ng/mL
  Cmax: 544.5 ng⁻¹ mL⁻¹
[5]; […] mg once daily, Day 28
  AUC0-24: 9,585/ h*ng/mL
  Cmax: 551.5 ng⁻¹ mL⁻¹
[5]; male, human, in vivo, oral, 15 mg, 15 mg once daily, Day 1, read-out: AUC0-24
  AUC(0-t): 4850 ng·h/mL
[5]; male, human, in vivo, oral, 15 mg, 15 mg once daily, Day 1, read-out: AUC0-last
  AUC(0-t): 4850 ng·h/mL
[5]; male, human, in vivo, oral, 15 mg, 15 mg once daily, Day 1, read-out: Cmax
  Cmax: 275 ng/mL
[5]; male, human, in vivo, oral, 15 mg, 15 mg once daily, Day 28, read-out: AUC0-24
  AUC(0-t): 6420 ng·h/mL
[5]; male, human, in vivo, oral, 15 mg, 15 mg once daily, Day 28, read-out: AUC0-last
  AUC(0-t): 24700 ng·h/mL
[5]; male, human, in vivo, oral, 15 mg, 15 mg once daily, Day 28, read-out: Cmax
  Cmax: 348 ng/mL
[5]; male, human, in vivo, oral, 30 mg, 30 mg once daily, Day 1, read-out: AUC0-24
  AUC(0-t): 10100 ng·h/mL
[5]; male, human, in vivo, oral, 30 mg, 30 mg once daily, Day 1, read-out: AUC0-last
  AUC(0-t): 10100 ng·h/mL
[5]; male, human, in vivo, oral, 30 mg, 30 mg once daily, Day 1, read-out: Cmax
  Cmax: 544 ng/mL
[5]; male, human, in vivo, oral, 30 mg, 30 mg once daily, Day 28, read-out: AUC0-24
  AUC(0-t): 9580 ng·h/mL
[5]; male, human, in vivo, oral, 30 mg, 30 mg once daily, Day 28, read-out: AUC0-last
  AUC(0-t): 36100 ng·h/mL
[5]; male, human, in vivo, oral, 30 mg, 30 mg once daily, Day 28, read-out: Cmax
  Cmax: 552 ng/mL
[5]; male, human, in vivo, oral, 30 mg, 30 mg once daily, Day 28
  Tmax: 6 h
[5]; [14]
  AUC(0-inf): 36400 ng·h/mL
  half-life: 28.9 h
[5]; male, human, in vivo, oral, 90 mg, 90 mg once daily, Day 1, read-out: AUC0-24
  AUC(0-t): 14100 ng·h/mL
[5]; male, human, in vivo, oral, 90 mg, 90 mg once daily, Day 1, read-out: AUC0-last
  AUC(0-t): 14100 ng·h/mL
[5]; male, human, in vivo, oral, 90 mg, 90 mg once daily, Day 1, read-out: Cmax
  Cmax: 794 ng/mL
[5]; male, human, in vivo, oral, 90 mg, 90 mg once daily, Day 1
  Tmax: 6 h
[5]; male, human, in vivo, oral, 90 mg, 90 mg once daily, Day 28, read-out: AUC0-24
  AUC(0-t): 22700 ng·h/mL
[5]; male, human, in vivo, oral, 90 mg, 90 mg once daily, Day 28, read-out: Cmax
  Cmax: 1160 ng/mL
[5]; [15]
  AUC(0-inf): 27500 ng·h/mL
  half-life: 35.8 h
[6]
  half-life: > 23.1 h
[7]
  Main outcomes: rat FOB (adverse effects on CNS): no adverse effects; also recorded: Clean
[8]; CYP2B6
  IC50: 6.1 µM
[8]; CYP2B6, 0.3 to 100 μM
  Time-dependent inhibition (TDI): no TDI potential
[9]
  Genotoxicity: Ames: not genotoxic; also recorded: no genotoxic potential; also recorded: Clean
[10]
  Half-life (T1/2) in microsomes: 9.5 h
[11]; NHP 14-day non-GLP, NOAEL 10 mg/kg/day, read-out: HED of NOAEL
  Human equivalent dose of NOAEL at 14 days: 3.2 mg/kg/day
[11]; 14-day repeat dose non-GLP, 5-20 mg/kg/day
  NOAEL at 14 days: 10 mg/kg/day
[11]; 14-day repeat-dose
  NOAEL at 14 days: 10 mg/kg
[12]; NHP NOAEL 10 mg/kg/day
  NOAEL increase over the minimum efficacious dose in rats: 22 fold
[12]; cynomolgus monkey, in vivo
  Signs of toxicity: No signs of toxicity
[12]; of NHP 14-day repeat-dose NOAEL
  HED (based on BSA): 3.23 mg/kg and 3.2 mg/kg
[12]; of NHP repeat-dose NOAEL
  HED for 60 kg BW: 192 mg
  HED for 80 kg BW: 256 mg
[13]; after the 30 mg dose
  Adverse event possibly related to study treatment: decreased sex drive in 1 participant
[13]; after the 180 mg dose, Holter monitoring, 1 participant
  Adverse event possibly related to study treatment: asymptomatic cardiac arrhythmia of low clinical concern
[13]; single doses 10, 30, 90, 180 mg, fasting
  Serious adverse events (SAEs): no serious adverse events
[13]; single doses 10-180 mg
  Adverse events classified as possibly related to study treatment (number): two
[13]; single doses up to 180 mg, fasted state, healthy volunteers
  Safety and tolerability: safe and well tolerated
